Values quoted from earlier work as cited in patent US20010004459A1, “Composition with sustained release of active principle, capable of forming a microemulsion” (priority 1998, published 2001).

Conditions: acidic pH (dissolution curve at pH 1.2, FIG. 2)

solubility at acidic pH: insoluble
SMILES: COc1ccc2c(c1)c(CC(=O)O)c(C)n2C(=O)c1ccc(Cl)cc1 [indomethacin, Indomethacin]
